# Assay results taken from US20140303092A1 (CHIMERIX, INC., priority 2011, published 2014).
# Assay: Study HDP-CDV-201: safety and tolerability (adverse events, laboratory abnormalities, discontinuations)
# Format: in vivo, human (adult allogeneic HSCT recipients)
# Experimental: Clinical Studies of HDP-CDV were performed and described in detail in the following Examples. For example, HDP-CDV-201 is a placebo-controlled, dose-escalating trial in HSCT CMV (R+) recipients, evaluating the ability of HDP-CDV to prevent or control CMV infection was carried out. Five cohorts were established in which participants or subjects received either placebo or the HDP-CDV orally, in doses ranging from 40 mg weekly (QW) to 200 mg twice weekly (BIW). Subjects who were post-HSCT were enrolled at the time of engraftment and randomized to HDP-CDV or placebo (3 to 1 ratio) and received blinded therapy until approximately 100 day post-transplantation. HDP-CDV doses were 40 mg QW, 100 mg QW, 200 mg QW, 200 mg BIW and 100 mg BIW. Escalation to the next dose was decided by the data monitoring committee after review of the safety data from the previous Cohort. Subjects who developed CMV disease or CMV infection requiring pre-emptive therapy with local standard of care were discontinued from blinded therapy and followed for 4 weeks. Subjects who completed treatment with blinded therapy were followed for 8 weeks post-therapy.
# Data from Study HDP-CDV-201 also provided characterization of the safety and tolerability profile of HDP-CDV when administered for the prevention or control of CMV infection in high risk (R^+) post-HSCT adult subjects.
# The Safety population (SAFETY) included all randomized subjects who took at least one dose of study treatment. This population was used to summarize safety outcomes based on the treatment actually received, in cases where a subject was treated contrary to the randomization schedule.
# The safety and tolerability profile of HDP-CDV, including subject demographics and Baseline characteristics; the AE profile; and laboratory abnormalities of interest were analyzed in the cohorts followed in this investigation.
# Subjects completing the treatment period received a full course of study medication; those completing the entire study attended visits through 8 weeks of follow up. Subjects who discontinued treatment may have done so for protocol specified reasons (e.g. development of clinically significant CMV infection requiring preemptive treatment with excluded anti-CMV medications) or for other reasons (e.g., withdrawal, adverse events, loss to follow-up). The disposition of subjects in Study HDP-CDV-201 during the double-blind, placebo-controlled treatment period (through Week 11) is listed by dosing Cohort in TABLE 23.
# Adverse events were examined by severity to ensure that all safety signals were identified in this study population. Because of the frequency of events in HSCT recipients, particular attention was given to evaluation of Grade 3 […], 4 (severe), and 5 (fatal) adverse events.
# Only those preferred terms for which at least one Grade 3 or higher event was experienced in any treatment group are listed. Cytomegalovirus-related AEs are excluded from this analysis.
# HDP-CDV is a lipid conjugate of CDV. Because CDV is known to have adverse effects on renal function and bone marrow, decreased GFR and persistent neutropenia were identified as AEs of special interest. Key renal and hematological (TABLE 30) laboratory parameters were measured and listed below by Study HDP-CDV-201 treatment groups. TABLE 30 includes abnormal levels of serum creatinine, neutrophils, platelets, WBCs, and hemoglobin and includes data at Screening and during the treatment period.
# A common metric for unit based dosing of medications is by weight (mg/kg). When the distribution of weights was examined for all subjects participating in the study, the median was 78 kg and the lower 25th percentile weight was approximately 65 kg, which translates to a cut-off of ˜3 mg/kg for a 200 mg total weekly dose. Based upon this approach, a cut-off of 3 mg/kg was used to assess the frequency of diarrhea and associated GI AEs reported for the subjects in Cohorts 3 or 4a (TABLE 40).
smiles,measurement,setting,value
CCCCCCCCCCCCCCCCOCCCOP(=O)(O)COC(CO)Cn1ccc(N)nc1=O (stereo not drawn) [HDP-CDV],"TEAE Hypokalaemia, Grade 3",100 mg BIW,2 (4.0%)
same,"TEAE Hypokalaemia, Grade 4",100 mg BIW,0
same,"TEAE Hypokalaemia, Grade 5",100 mg BIW,0
same,"TEAE Hyponatraemia, Frequency",100 mg BIW,1 (2.0%)
same,"TEAE Hyponatraemia, Grade 2",100 mg BIW,0
same,"TEAE Hyponatraemia, Grade 3",100 mg BIW,0
same,"TEAE Hyponatraemia, Grade 4",100 mg BIW,0
same,"TEAE Hyponatraemia, Grade 5",100 mg BIW,0
same,"TEAE LFT Abnormal, Frequency",100 mg BIW,2 (4.0%)
same,"TEAE LFT Abnormal, Grade 2",100 mg BIW,1 (2.0%)
same,"TEAE LFT Abnormal, Grade 3",100 mg BIW,0
same,"TEAE LFT Abnormal, Grade 4",100 mg BIW,0
same,"TEAE LFT Abnormal, Grade 5",100 mg BIW,0
same,"TEAE Leukocytosis, Frequency",100 mg BIW,2 (4.0%)
same,"TEAE Leukocytosis, Grade 2",100 mg BIW,0
same,"TEAE Leukocytosis, Grade 3",100 mg BIW,1 (2.0%)
same,"TEAE Leukocytosis, Grade 4",100 mg BIW,0
same,"TEAE Leukocytosis, Grade 5",100 mg BIW,0
same,"TEAE Nausea, Frequency",100 mg BIW,17 (34.0%)
same,"TEAE Nausea, Grade 2",100 mg BIW,9 (18.0%)
same,"TEAE Nausea, Grade 3",100 mg BIW,2 (4.0%)
same,"TEAE Nausea, Grade 4",100 mg BIW,0
same,"TEAE Nausea, Grade 5",100 mg BIW,0
same,"TEAE Neutropenia, Frequency",100 mg BIW,10 (20.0%)
same,"TEAE Neutropenia, Grade 2",100 mg BIW,2 (4.0%)
same,"TEAE Neutropenia, Grade 3",100 mg BIW,5 (10.0%)
same,"TEAE Neutropenia, Grade 4",100 mg BIW,2 (4.0%)
same,"TEAE Neutropenia, Grade 5",100 mg BIW,0
same,"TEAE Pneumonia, Frequency",100 mg BIW,5 (10.0%)
same,"TEAE Pneumonia, Grade 2",100 mg BIW,1 (2.0%)
same,"TEAE Pneumonia, Grade 3",100 mg BIW,3 (6.0%)
same,"TEAE Pneumonia, Grade 4",100 mg BIW,0
same,"TEAE Pneumonia, Grade 5",100 mg BIW,1 (2.0%)
same,"TEAE Pyrexia, Frequency",100 mg BIW,10 (20.0%)
same,"TEAE Pyrexia, Grade 2",100 mg BIW,4 (8.0%)
same,"TEAE Pyrexia, Grade 3",100 mg BIW,1 (2%)
same,"TEAE Pyrexia, Grade 4",100 mg BIW,0
same,"TEAE Pyrexia, Grade 5",100 mg BIW,0
same,"TEAE Renal Failure, Frequency",100 mg BIW,5 (10.0%)
same,"TEAE Renal Failure, Grade 2",100 mg BIW,1 (2.0%)
same,"TEAE Renal Failure, Grade 3",100 mg BIW,1 (2.0%)
same,"TEAE Renal Failure, Grade 4",100 mg BIW,1 (2.0%)
same,"TEAE Renal Failure, Grade 5",100 mg BIW,0
same,"TEAE Staphylococcal Bacteremia, Frequency",100 mg BIW,6 (12.0%)
same,"TEAE Staphylococcal Bacteremia, Grade 2",100 mg BIW,2 (4.0%)
same,"TEAE Staphylococcal Bacteremia, Grade 3",100 mg BIW,3 (6.0%)
same,"TEAE Staphylococcal Bacteremia, Grade 4",100 mg BIW,0
same,"TEAE Staphylococcal Bacteremia, Grade 5",100 mg BIW,0
same,"TEAE Thrombocytopenia, Frequency",100 mg BIW,7 (14.0%)
same,"TEAE Thrombocytopenia, Grade 2",100 mg BIW,1 (2.0%)
same,"TEAE Thrombocytopenia, Grade 3",100 mg BIW,1 (2.0%)
same,"TEAE Thrombocytopenia, Grade 4",100 mg BIW,2 (4.0%)
same,"TEAE Thrombocytopenia, Grade 5",100 mg BIW,0
same,"TEAE Vomiting, Frequency",100 mg BIW,22 (44.0%)
same,"TEAE Vomiting, Grade 2",100 mg BIW,8 (16.0%)
same,"TEAE Vomiting, Grade 3",100 mg BIW,2 (4.0%)
same,"TEAE Vomiting, Grade 4",100 mg BIW,0
same,"TEAE Vomiting, Grade 5",100 mg BIW,0
same,subjects requiring treatment with steroids during the study,100 mg BIW,72%
same,subjects who interrupted HDP-CDV due to an adverse event,100 mg BIW Cohort,17 out of 50
same,Subjects Reporting Diarrhea as an AE,"100 mg BIW, n = 50",26 (52.0%)
same,Discontinuation: Death,"100 mg BIW, active treatment period",4 (8.0%) Subject n (%)
same,Discontinuation: Adverse event,"100 mg BIW, active treatment period through Week 11",8 (16.0%) Subject n (%)
same,"TEAE ALT increased, Frequency",100 mg QW,1 (3.7%)
same,"TEAE ALT increased, Grade 2",100 mg QW,0
same,"TEAE ALT increased, Grade 3",100 mg QW,1 (3.7%)
same,"TEAE ALT increased, Grade 4",100 mg QW,0
same,"TEAE ALT increased, Grade 5",100 mg QW,0
same,"TEAE AML, Recurrent, Frequency",100 mg QW,0
same,"TEAE AML, Recurrent, Grade 2",100 mg QW,0
same,"TEAE AML, Recurrent, Grade 3",100 mg QW,0
same,"TEAE AML, Recurrent, Grade 4",100 mg QW,0
same,"TEAE AML, Recurrent, Grade 5",100 mg QW,0
same,"TEAE AST increased, Frequency",100 mg QW,1 (3.7%)
same,"TEAE AST increased, Grade 2",100 mg QW,1 (3.7%)
same,"TEAE AST increased, Grade 3",100 mg QW,0
same,"TEAE AST increased, Grade 4",100 mg QW,0
same,"TEAE AST increased, Grade 5",100 mg QW,0
same,"TEAE Abdominal pain, Frequency",100 mg QW,2 (7.4%)
same,"TEAE Abdominal pain, Grade 2",100 mg QW,0
same,"TEAE Abdominal pain, Grade 3",100 mg QW,1 (3.7%)
same,"TEAE Abdominal pain, Grade 4",100 mg QW,0
same,"TEAE Abdominal pain, Grade 5",100 mg QW,0
same,"TEAE Acute GVHD, Frequency",100 mg QW,7 (25.5%)
same,"TEAE Acute GVHD, Grade 2",100 mg QW,4 (14.8%)
same,"TEAE Acute GVHD, Grade 3",100 mg QW,2 (7.3%)
same,"TEAE Arthralgias, Frequency",100 mg QW,3 (11.1%)
same,"TEAE Arthralgias, Grade 2",100 mg QW,0
same,"TEAE Arthralgias, Grade 3",100 mg QW,0
same,"TEAE Arthralgias, Grade 4",100 mg QW,0
same,"TEAE Arthralgias, Grade 5",100 mg QW,0
same,"TEAE Back Pain, Frequency",100 mg QW,2 (7.4%)
same,"TEAE Back Pain, Grade 2",100 mg QW,0
same,"TEAE Back Pain, Grade 3",100 mg QW,0
same,"TEAE Back Pain, Grade 4",100 mg QW,0
same,"TEAE Back Pain, Grade 5",100 mg QW,0
same,"TEAE Decreased appetite, Frequency",100 mg QW,5 (18.5%)
same,"TEAE Decreased appetite, Grade 2",100 mg QW,2 (7.4%)
same,"TEAE Decreased appetite, Grade 3",100 mg QW,0
same,"TEAE Decreased appetite, Grade 4",100 mg QW,0
same,"TEAE Decreased appetite, Grade 5",100 mg QW,0
same,"TEAE Diarrhea, Frequency",100 mg QW,8 (29.6%)
same,"TEAE Diarrhea, Grade 2",100 mg QW,3 (11.1%)
same,"TEAE Diarrhea, Grade 3",100 mg QW,0
same,"TEAE Diarrhea, Grade 4",100 mg QW,0
same,"TEAE Diarrhea, Grade 5",100 mg QW,0
same,"TEAE Fatigue, Frequency",100 mg QW,3 (11.1%)
same,"TEAE Fatigue, Grade 2",100 mg QW,0
same,"TEAE Fatigue, Grade 3",100 mg QW,0
same,"TEAE Fatigue, Grade 4",100 mg QW,0
same,"TEAE Fatigue, Grade 5",100 mg QW,0
